Laboratory results published in patent publication US10111862B2, “Traps in the treatment of macular degeneration” (Aldeyra Therapeutics, Inc., priority 2013, dated 2018).

Assay: RAL depletion by compounds in rod outer segment preparation
Format: biochemical, bovine
Conditions: rod outer segment preparation containing 64 μM opsin at 37° C.; for Kapp, apparent equilibrium constant of RAL depletion / kapp, apparent second order rate constant of RAL depletion: nominal starting drug 1.00 mM, RAL 60 μM; for ΔGapp, apparent free energy change of RAL depletion: ΔGapp=−RT ln Kapp
Description: The parameters associated with the RAL depletion chemistry are as follows:
[drawing 47] kapp: apparent second order rate constant of RAL depletion by drug. Kapp: apparent equilibrium constant of RAL depletion by drug.
[formula] ΔGapp: apparent free energy change of RAL depletion by drug. ΔGapp=−RT ln Kapp (2) Kring: equilibrium constant of tautomerism from imine to oxaminal (ring closed).
Frozen bovine rod outer segment preparation (64 μM of opsin) is thawed and vortexed thoroughly. A 200 μL aliquot of this sample is transferred into a 0.5 mL Eppendorf tube. To it is added 10 μL of 20 mM drug stock solution in EtOH, and the mixture is vortexed for 1 min. The tube is incubated at 37° C. in a Thermo Scientific microprocessor controlled 280 series water bath for 3 min before 5 μL freshly prepared 2.4 mM RAL solution in EtOH is added (the nominal starting concentrations of drug and RAL are 1.00 mM and 60 μM, respectively). After vortexing for 1 min, the tube is incubated at 37° C. over time. Aliquots of the reaction mixture (25 μL each) are taken periodically, and added onto 10 mg of solid NaBH4 in a 0.5 mL Eppendorf tube. To the latter is added carefully 400 μL of 2:1 (v/v) EtOH/HOAc. The reduction mixture is vortexed for 1 min and centrifuged. The supernatant is separated, and analyzed by HPLC using a standard HPLC method:
Solvent A: 0.05% HCOOH/95% HPLC grade water/5% HPLC grade MeCN
Solvent B: 0.05% HCOOH HPLC grade MeCN
Detector wavelengths: 329 and 250 nm
Reference wavelength: 400 nm
The RAL depletion percentages are calculated by normalization of ROL and Re-RAL-drug peak integrals, which are then plotted against reaction time. Least squares fit of the RAL depletion plot according to pseudo-first order kinetics yields observed first order rate constant kobsd, and kapp is calculated according to kobsd=kapp[drug]. Kapp is calculated from the equilibrium concentrations of free RAL, free drug and RAL-drug according to equation (1). ΔGapp was calculated according equation (2).

Row | Structure (SMILES) | Kapp, apparent equilibrium constant of RAL depletion | kapp, apparent second order rate constant of RAL depletion | ΔGapp, apparent free energy change of RAL depletion [kcal/mol]
1 | CC(C)(O)c1c(N)cc(Cl)c2c(C3CC3)noc12 [Compound 6, 2-(6-amino-4-chloro-3-cyclopropylbenzisoxazol-7-yl)propan-2-ol] | 3.35×10^6 | 12,700 M^−1·h^−1 | -9.2
2 | CC(C)(O)c1nc2ccc(Cl)cc2cc1N [reference compound] | 1.55 × 10^5 | 3,570 M^−1·h^−1 | -7.4
3 | CC(C)(O)c1c(N)cc2onc(C3CC3)c2c1Cl [Compound 4, 2-(6-amino-4-chloro-3-cyclopropylbenzisoxazol-5-yl)propan-2-ol] | >2 × 10^7 | 31,700 M^−1·h^−1 | <-10
4 | CC(C)(O)c1c(N)cc2c(C3CC3)noc2c1Cl [Compound 5, 2-(5-amino-7-chloro-3-cyclopropylbenzisoxazol-6-yl)propan-2-ol] | >2 × 10^7 | 35,300 M^−1·h^−1 | <-10
5 | CC(C)(O)c1c(N)cc2nc(-c3ccccc3)oc2c1Cl [Compound 3, 2-(5-amino-7-chloro-2-phenylbenzoxazol-6-yl)propan-2-ol] | 7.14×10^6 | 21,600 M^−1·h^−1 | -9.7
6 | Cc1ccc(-c2nc3cc(N)c(C(C)(C)O)c(Cl)c3o2)cc1 [Compound 2, 2-(5-amino-7-chloro-2-p-tolylbenzoxazol-6-yl)propan-2-ol] | 2.29×10^6 | 24,700 M^−1·h^−1 | -9.0
7 | CC(C)(O)c1cc2oc(-c3ccccc3)nc2cc1N [reference compound] | 1.25 × 10^6 | 25,500 M^−1·h^−1 | -8.6
